Data from US8309790B2, “Animal models for demyelination disorders” (University of Chicago, priority 2005, dated 2012).

Legend:
[1] = test system: ER stress markers BIP, CHOP, p-eIF-2α; assay: ER stress markers in the corpus callosum of cuprizone treated mice expressing IFN-γ; type: in vivo
Method: Repression of remyelination by IFN-γ is associated with ER stress. […] To determine whether IFN-γ interferes with endoplasmic reticulum (ER) function in remyelinating oligodendrocytes, the expression of ER stress markers was monitored in the corpus callosum of mice expressing IFN-γ. The study was performed using the transgenic mice described in Example 1.
The level of mRNA encoding ER stress associated genes binding immunoglobulin protein/78 KDa glucose regulated protein (BIP/GRP78) and the CAATT enhancer-binding protein homologous protein/growth and DNA damage protein 153 (CHOP/GADD153), was determined using real time PCR, as described in Example 1 in the corpus callosum of the cuprizone treated mice of Example 1. The probes, sense and antisense primers that were used were: […]
The level of phosphorylated eIF-2α, which inhibits nucleotide exchange on the eIF-2 complex and attenuates most protein synthesis, was analyzed by Western blot, and the expression was colocalized by immunostaining CC1 antibodies as described above. Western blot analysis was performed as follows. The corpus callosum from 3 mice was rinsed in ice cold phosphate-buffered saline (PBS) and pooled, and immediately homogenized in 5 volumes of Triton X-100 buffer (20 mM HEPES pH 7.5, 150 mM NaCl, 1% Triton X-100, 10% glycerol, 1 mM EDTA, 10 mM tetrasodium pyrophosphate, 100 mM NaF, 17.5 mM β-glycerophosphate, 10 mM phenylmethylsulfonyl fluoride, 15 μg/ml aprotonin, and 6 μg/ml pepstatin A) using a motorized homogenizer. After incubation on ice for 15 min, the extracts were cleared by centrifugation at 14,000 rpm twice for 30 min each. The protein content of each extract was determined by protein assay (Bio-Rad). The extracts (40 μg) were separated by sodium dodecyl sulfate-polyacrylamide gel electrophoresis and transferred to nitrocellulose. […] The following primary antibodies were used: anti-eIF-2α (1:500; Santa Cruz, Santa Cruz, Calif.), anti-p-eIF-2α (1:1000, Cell signaling Technology), anti-CHOP (1:500; Santa Cruz) and anti-actin (1:1000; Sigma, St Louis, Mo.).

[2] = test system: cultured rat oligodendrocytes; assay: IFN-γ treatment of cultured rat oligodendrocytes (apoptosis, ER stress markers); type: cell-based
Method: To test whether apoptosis of oligodendrocytes that is induced by INF-γ affects ER stress, the effect on the morphology, the degree of apoptosis and the expression of ER markers was studied in a culture of oligodendrocyte precursor cells (OPC). Oligodendrocyte progenitors were cultured from neonatal rat brains (Baerwald, et al. (1998) J. Neurosci. Res. 52: 230-239). A mixed glial culture was grown in flasks in medium containing 10% fetal bovine serum (FBS), and when the astrocyte layer became confluent (10-14 days), oligodendrocyte progenitors were separated from astrocytes and microglia using an orbital shaker. Cells, greater than 95% of which were A2B5 positive, GFAP negative and CD11b negative, were cultured in 0.5% FBS containing medium, which also contained PDGF (10 ng/ml) and FGF (5 ng/ml) (both from R&D Systems, Minneapolis, Minn.). Then cells were switched to 0.5% FBS medium without PDGF and FGF for differentiation. After 5 days in the differentiating medium, approximately 40% of cells were positive for myelin protein 2′3′-cyclic nucleotide 3′-phosphodiestaerase (CNP). 70 U/ml recombinant rat IFN-γ (Calbiochem, La Jolla, Calif.) was added to the cells that had been allowed to differentiation for 5 days. After 5 d in the differentiating medium, about 40% of the cells were CNP positive. 70 U/ml of recombinant rat INF-γ (Calbiochem) was added to the cells that had been allowed to differentiate for 5d. To examine the oligodendroglial response to general ER stress-inducing agents, progenitor cells that had been cultured in differentiation medium for 5 or 7 days were treated with 2 μg/ml of tunicamycin (Sigma Aldrich) for 6 hours.
The level of apoptosis of the OPC cells was determined by double staining CNP (1:200; Stemberger Monoclonals, Lutherville, Md.) and TUNEL using the ApopTag Kit (Serologicals Corp., Norcross, […].) and following the manufacturer's instructions. Apoptosis was also evaluated by measuring the activity of caspase-3 in oligodendrocyte lysates using the Fluorimetric Caspase 3 Assay Kit (Sigma, St. Louis, Mo.), according to the manufacturer's instructions.
To determine whether INF-γ affects ER function, the RNA expression of ER markers binding immunoglobulin protein (BIP), CAAT enhancer binding protein homologous protein (CHOP), and caspase 12 was determined using real time PCR. RNA was isolated from cultured cells and mice brain using Trizol reagent (Invitrogen, Carlsbad, Calif.) and treated with DNAaseI (Invitrogen) to eliminate genomic DNA. Reverse transcription was performed using Superscript First Strand Synthesis System for RT-PCR kit (Invitrogen). Real-time PCR was performed with iQ Supermix (Bio-Rad, Hercules, Calif.) on a Bio-Rad iQ real-time PCR detection system (Bio-Rad). The following primers and probes (Integrated DNA Technologies Inc., Coralville, Iowa) for real-time PCR were used: mouse CHOP sense primer […] (SEQ ID NO: 34); mouse CHOP antisense primer […] (SEQ ID NO: 35); CHOP probe […] (SEQ ID NO: 36); mouse BIP sense primer […] (SEQ ID NO: 31); mouse BIP antisense primer […] (SEQ ID NO: 32); BIP probe […] (SEQ ID NO: 33); mouse caspase 12 sense primer […] (SEQ ID NO: 37); and mouse caspase antisense primer […] (SEQ ID NO: 38).
To determine the effect of INF-γ on the level of phosphorylated eIF-2α and caspase 12 proteins, western blot analysis was performed using the following antibodies anti-eIF-2α (1:500; Santa Cruz), anti-p-eIF-2α (1:1000, Cell signaling Technology), anti-caspase-12 (1:500; Santa Cruz) and anti-actin (1:1000; Sigma, St Louis, Mo.), and according to the following protocol. […]

[3] = test system: Hippocampal organotypic cultures; assay: Hippocampal organotypic cultures (HOC), in vitro model of myelination, MBP Western blot; type: cell-based; settings: 7 days of 100 U/ml IFN-γ exposure
Method: Our hypothesis is that the integrated stress response has the potential to protect oligodendrocytes from the harmful effects of the inflammatory response in patients with multiple sclerosis (MS). […] To test whether agents that prolong eIF2α phosphorylation might provide protection to oligodendrocytes against detrimental inflammatory factors, the effect of Salubrinol (Sal) in the presence of the immune cytokine IFN-γ was tested in an in vitro model of myelination.
HOCs, were prepared and maintained as described previously (Kunkler and Kraig (1997) J Cereb Blood Flow Metab. 17:26-43), and were maintained in vitro for 7 days before use. SAL at various concentrations was combined with 100 U/ml IFN-γ and added to the HOC cultures for 7 days. […] After 7 days of 100 U/ml IFN-γ exposure, the levels of MBP decreased approximately 80% in the HOCs (FIG. 29).

[4] = corpus callosum of DOX− mice, Western blot

**Q.** What does the source list for interferon-γ [IFN-γ]?
**A.** level of CHOP protein [1, 4]: approximately 1.7 fold; level of phosphorylated eIF-2α (p-eIF-2α) [1, 4]: approximately 1.8 fold; level of mRNA for BIP and CHOP ([1]; corpus callosum, DOX− compared to control DOX+, real time PCR): approximately 2 fold; caspase-3 activity in the cell lysates ([2]; 70 U/ml IFN-γ): markedly increased; apoptosis, TUNEL and CNP double labeling ([2]; 70 U/ml IFN-γ for 48 h): induced apoptosis in a significant number of oligodendrocytes; cell morphology ([2]; 70 U/ml IFN-γ for 48 h, cells differentiated 5 days): abnormal morphological changes; level of phosphorylated eIF-2α (p-eIF-2α) ([2]; 70 U/ml IFN-γ, Western blot): significantly elevated; caspase-12 expression ([2]; 70 U/ml IFN-γ, real-time PCR): induction of caspase-12 was observed; levels of mRNA encoding BIP/GRP78 and CHOP/GADD153 ([2]; 70 U/ml IFN-γ, real-time PCR): 2 to 3 times; level of the active fragment of caspase-12 ([2]; after 48 h of IFN-γ treatment, Western blot): strongly elevated; decrease of the levels of MBP [3]: approximately 80%
